From US10231453B2, “5-substituted imidazole derivatives” (BAYER CROPSCIENCE AKTIENGESELLSCHAFT, priority 2015, dated 2019)
Like-named read-outs stand apart in the source and are kept apart here.

How the values were obtained:
Botrytis cinerea [1] = assay: In vitro test for the calculation of the ED50-value with microorganisms, Example Q4: Botrytis cinerea; type: cell-based; details: liquid culture, spore suspension, 4 to 7 days incubation, spectrometric measurement of mycelium growth
Septoria tritici [2] = assay: In vivo preventive test on Septoria tritici (leaf spot on wheat), Examples E, Q3 and R5; details: for pest or weed control at 500 ppm / pest or weed control at 100 ppm: Zymoseptoria tritici, 576 h
Leptosphaeria nodorum [3] = assay: In vitro test for the calculation of the ED50-value with microorganisms, Example Q4: Leptosphaeria nodorum; type: cell-based; details: liquid culture, spore suspension, 4 to 7 days incubation, spectrometric measurement of mycelium growth
Botrytis cinerea [4] = assay: In vivo preventive test on Botrytis cinerea (grey mould) on gherkin, Examples B, Q1 and R2
Fusarium culmorum [5] = assay: In vitro test for the calculation of the ED50-value with microorganisms, Example Q4: Fusarium culmorum; type: cell-based; details: liquid culture, spore suspension, 4 to 7 days incubation, spectrometric measurement of mycelium growth
Description: • Solvent: Dimethyl sulfoxide • Culture medium: 14.6 g anhydrous D-glucose (VWR), 7.1 g Mycological Peptone (Oxoid), 1.4 g granulated Yeast Extract (Merck), QSP liter • Inoculum: Spore suspension
Fungicides were solubilized in DMSO and the solution used to prepare the required range of concentrations. The final concentration of DMSO used in the assay was ≤1%.
A spore suspension was prepared and diluted to the desired spore density.
Fungicides were evaluated for their ability to inhibit spore germination and mycelium growth in liquid culture assay. The compounds were added in the desired concentration to the culture medium with spores. After 4 to 7 days incubation, fungi-toxicity of compounds was determined by spectrometric measurement of mycelium growth. Inhibition of fungal growth was determined by comparing the absorbance values in wells containing the fungicides with the absorbance in control wells without fungicides.

Septoria tritici [6] = assay: In vitro test for the calculation of the ED50-value with microorganisms, Example Q4: Septoria tritici; type: cell-based; details: liquid culture, spore suspension, 4 to 7 days incubation, spectrometric measurement of mycelium growth
Pyrenophora teres = assay: In vivo preventive test on Pyrenophora teres (net blotch on barley), Examples D, Q2 and R4; details: for pest or weed control at 500 ppm / pest or weed control at 100 ppm: Pyrenophora teres, 336 h
Sphaerotheca fuliginea = assay: In vivo preventive test on Sphaerotheca fuliginea (powdery mildew on cucurbits), Examples F and R6; details: Podosphaera fuliginea, 360 h, preventive spray, evaluated 15 days after inoculation
Phakopsora pachyrhizi = assay: In vivo preventive Phakopsora test (soybeans), Example I; details: 168 h, 100 ppm of active ingredient, preventive spray, evaluated 7 days after inoculation, read-out: efficacy
[7] = test system: Blumeria graminis fsp. hordei; assay: In vivo preventive Blumeria test (barley), Example K; details: 168 h, 500 ppm of active ingredient, preventive spray, evaluated 7 days after inoculation, read-out: efficacy
Text: After the spray coating has been dried, the plants are dusted with spores of Blumeria graminis fsp. hordei.

Uromyces appendiculatus = assay: In vivo preventive test on Uromyces appendiculatus (bean rust), Examples G and R7; details: 264 h, preventive spray, evaluated 11 days after inoculation
Alternaria solani = assay: In vivo preventive Alternaria test (tomatoes), Example H; details: 72 h, 100 ppm of active ingredient, preventive spray, evaluated 3 days after inoculation, read-out: efficacy
[8] = Measurement of LogP values by HPLC on reversed phase columns (EEC directive 79/831 Annex V.A8); type: physicochemical; details: method [a]: LC-UV, acidic range, 0.1% formic acid in water and acetonitrile as eluent; Table 1
Description: Measurement of Log P values was performed as outlined above.

Leptosphaeria nodorum [9] = assay: In vivo preventive Leptosphaeria nodorum test (wheat), Example N; details: Parastagonospora nodorum, 192 h, 500 ppm of active ingredient, preventive spray, evaluated 8 days after inoculation, read-out: efficacy
Text: After the spray coating has been dried, the plants are sprayed with a spore suspension of Leptosphaeria nodorum.

Venturia inaequalis = assay: In vivo preventive Venturia test (apples), Example J; details: 240 h, read-out: efficacy
Description: After the spray coating has dried on, the plants are inoculated with an aqueous conidia suspension of the causal agent of apple scab (Venturia inaequalis) and then remain for 1 day in an incubation cabinet at approximately 20° C. and a relative atmospheric humidity of 100%.
The plants are then placed in a greenhouse at approximately 21° C. and a relative atmospheric humidity of approximately 90%.
The test is evaluated 10 days after the inoculation.

[10] = test system: Fusarium nivale (var. majus); assay: In vivo preventive Fusarium nivale (var. majus) test (wheat), Example O; details: Microdochium nivale, 120 h, 500 ppm of active ingredient, preventive spray, evaluated 5 days after inoculation, read-out: efficacy
Text: After the spray coating has been dried, the plants are slightly injured by using a sandblast and afterwards they are sprayed with a conidia suspension of Fusarium nivale (var. majus).

Pyricularia oryzae = assay: whole plant or invertebrate; type: in vivo; details: 192 h, read-out: efficacy
Fusarium graminearum = assay: whole plant or invertebrate; type: in vivo; details: in Hordeum vulgare, 120 h, read-out: efficacy
Puccinia recondita = assay: In vivo preventive test on Puccinia recondita (brown rust on wheat), Examples C and R3; details: Puccinia recondita, 264 h, preventive spray, evaluated 11 days after inoculation
Fusarium culmorum [11] = assay: In vivo preventive Fusarium culmorum test (wheat), Example L; details: 120 h, 500 ppm of active ingredient, preventive spray, evaluated 5 days after inoculation, read-out: efficacy
Description: After the spray coating has been dried, the plants are slightly injured by using a sandblast and afterwards they are sprayed with a conidia suspension of Fusarium culmorum.
The test is evaluated 5 days after the inoculation.

Alternaria brassicae = assay: In vivo preventive test on Alternaria brassicae (leaf spot on radish), Examples A and R1; details: Alternaria brassicae, 144 h, 500 ppm of active ingredient, preventive spray, evaluated 6 days after inoculation, read-out: efficacy
[12] = 500 ppm of active ingredient, wheat, preventive spray, evaluated 24 days after inoculation, read-out: efficacy
[13] = 500 ppm of active ingredient, gherkin, read-out: efficacy
[14] = Botrytis cinerea, 500 ppm of active ingredient, preventive spray, evaluated 4 to 5 days after inoculation, read-out: efficacy
[15] = 500 ppm of active ingredient, bean, read-out: efficacy
[16] = 500 ppm of active ingredient, wheat, read-out: efficacy
[17] = 500 ppm of active ingredient, preventive spray, evaluated 14 days after inoculation, read-out: efficacy

SMILES	Botrytis cinerea ED50 value in ppm (Botrytis cinerea [1]) [ppm]	Leptosphaeria nodorum ED50 value in ppm (Leptosphaeria nodorum [3]) [ppm]	Fusarium culmorum ED50 value in ppm (Fusarium culmorum [5]) [ppm]	Septoria tritici ED50 value in ppm (Septoria tritici [6]) [ppm]	pest or weed control at 500 ppm (Septoria tritici [2]; [12]) [%]	pest or weed control at 500 ppm (Sphaerotheca fuliginea; [13]) [%]	pest or weed control at 500 ppm (Botrytis cinerea [4]; [14]) [%]	pest or weed control at 100 ppm (Phakopsora pachyrhizi) [%]	pest or weed control at 500 ppm [7] [%]	pest or weed control at 500 ppm (Uromyces appendiculatus; [15]) [%]	pest or weed control at 100 ppm (Alternaria solani) [%]	chromatographic logP [8]	pest or weed control at 500 ppm (Leptosphaeria nodorum [9]) [%]	pest or weed control at 100 ppm (Venturia inaequalis) [%]	pest or weed control at 500 ppm [10] [%]	pest or weed control at 500 ppm (Pyricularia oryzae) [%]	pest or weed control at 500 ppm (Fusarium graminearum) [%]	pest or weed control at 500 ppm (Puccinia recondita; [16]) [%]	pest or weed control at 500 ppm (Fusarium culmorum [11]) [%]	pest or weed control at 500 ppm (Pyrenophora teres; [17]) [%]	further results
OC(Cc1ccc(Cl)cc1F)(Cn1ccnc1)C1(Cl)CC1 (racemic) [reference compound]	0.53	0.04	0.04	0.02	–	–	–	–	–	–	–	–	–	–	–	–	–	–	–	–	Efficacy in % (Septoria tritici [2]; Example Q3, rate of application 100 ppm, wheat): 0%; Efficacy in % (Septoria tritici [2]; Example Q3, rate of application 500 ppm, wheat): 100%; Efficacy in % (Botrytis cinerea [4]; Example Q1, rate of application 100 ppm): 70%; Efficacy in % (Botrytis cinerea [4]; Example Q1, rate of application 500 ppm): 100%; Efficacy in % (Pyrenophora teres; Example Q2, rate of application 100 ppm): 0%; Efficacy in % (Pyrenophora teres; Example Q2, rate of application 500 ppm): 0%
OC(Cc1ccccc1Cl)(Cn1cncc1F)C1(Cl)CC1 (stereo not drawn) [Example I-16]	–	–	–	–	90 to 100	90 to 100	90 to 100	90 to 100	90 to 100	90 to 100	90 to 100	1.94	90 to 100	90 to 100	90 to 100	90 to 100	80 to 89	80 to 89	90 to 100	90 to 100	pest or weed control at 500 ppm (Alternaria brassicae): 90 to 100%
OC(Cc1cc(F)ncc1Cl)(Cn1cncc1Cl)C1(Cl)CC1 (stereo not drawn) [Example I-18]	–	–	–	–	90 to 100	90 to 100	90 to 100	90 to 100	90 to 100	90 to 100	90 to 100	2.01	90 to 100	90 to 100	90 to 100	90 to 100	90 to 100	90 to 100	80 to 89	90 to 100	pest or weed control at 500 ppm (Alternaria brassicae): 70 to 79%
OC(Cc1ccc(Cl)cc1F)(Cn1cncc1Br)C1(Cl)CC1 (stereo not drawn) [Example I-30]	0.08	0.01	0.01	<0.006	90 to 100	90 to 100	90 to 100	90 to 100	90 to 100	90 to 100	90 to 100	2.55	90 to 100	90 to 100	–	90 to 100	–	90 to 100	–	90 to 100	pest or weed control at 100 ppm (Septoria tritici [2]; Example Q3, rate of application 100 ppm, wheat, read-out: Efficacy in %): 94%; pest or weed control at 500 ppm (Septoria tritici [2]; Example Q3, rate of application 500 ppm, wheat, read-out: Efficacy in %): 98%; pest or weed control at 100 ppm (Septoria tritici [2]; Example R5, wheat, preventive spray, 100 ppm, evaluated 24 days after inoculation, read-out: Efficacy in %): 94%; pest or weed control at 500 ppm (Septoria tritici [2]; Example R5, wheat, preventive spray, 500 ppm, evaluated 24 days after inoculation, read-out: Efficacy in %): 98%; pest or weed control at 100 ppm (Sphaerotheca fuliginea; Example R6, gherkin, 100 ppm, read-out: Efficacy in %): 100%; pest or weed control at 500 ppm (Sphaerotheca fuliginea; Example R6, gherkin, 500 ppm, read-out: Efficacy in %): 100%; pest or weed control at 100 ppm (Botrytis cinerea [4]; Botrytis cinerea, Example Q1, rate of application 100 ppm, read-out: Efficacy in %): 100%; pest or weed control at 500 ppm (Botrytis cinerea [4]; Botrytis cinerea, Example Q1, rate of application 500 ppm, read-out: Efficacy in %): 100%; Efficacy in % (Botrytis cinerea [4]; Example R2, rate of application 100 ppm): 100%; Efficacy in % (Botrytis cinerea [4]; Example R2, rate of application 500 ppm): 100%; pest or weed control at 100 ppm (Uromyces appendiculatus; Example R7, bean, 100 ppm, read-out: Efficacy in %): 88%; pest or weed control at 500 ppm (Uromyces appendiculatus; Example R7, bean, 500 ppm, read-out: Efficacy in %): 100%; pest or weed control at 100 ppm (Puccinia recondita; Example R3, wheat, 100 ppm, read-out: Efficacy in %): 88%; pest or weed control at 500 ppm (Puccinia recondita; Example R3, wheat, 500 ppm, read-out: Efficacy in %): 94%; pest or weed control at 100 ppm (Pyrenophora teres; Example Q2, rate of application 100 ppm, read-out: Efficacy in %): 91%; pest or weed control at 500 ppm (Pyrenophora teres; Example Q2, rate of application 500 ppm, read-out: Efficacy in %): 94%; pest or weed control at 100 ppm (Pyrenophora teres; Example R4, rate of application 100 ppm, read-out: Efficacy in %): 81%; pest or weed control at 500 ppm (Pyrenophora teres; Example R4, rate of application 500 ppm, read-out: Efficacy in %): 94%
N#Cc1cncn1CC(O)(Cc1ccccc1)C1(Cl)CC1 (stereo not drawn) [Example I-65]	–	–	–	–	80 to 89	90 to 100	90 to 100	90 to 100	90 to 100	90 to 100	90 to 100	2.64	80 to 89	80 to 89	90 to 100	90 to 100	90 to 100	90 to 100	90 to 100	90 to 100	–
N#Cc1cncn1CC(O)(Cc1ccc(F)cc1)C1(Cl)CC1 (stereo not drawn) [Example I-157]	–	–	–	–	90 to 100	90 to 100	90 to 100	90 to 100	90 to 100	90 to 100	80 to 89	2.75	80 to 89	90 to 100	80 to 89	90 to 100	90 to 100	90 to 100	90 to 100	90 to 100	–
